Reference: ChEMBL document CHEMBL3808371, “Design, synthesis and biological evaluation of diaziridinyl quinone isoxazole hybrids” (Eur J Med Chem, 2016)
≈ marks a conversion by molar mass, not a printed value.

Columns and labels:
[1] = tested on: A549; assay: Cytotoxicity against human A549 cells after 72 hrs by XTT assay; format: functional, cell-based; conditions: A549, 72 h
[2] = Cytotoxicity against human PC3 cells after 72 hrs by XTT assay; format: functional, cell-based; conditions: PC-3, 72 h
[3] = tested on: A549; assay: Selectivity ratio of IC50 for human A549 cells to IC50 for human PC3 cells; format: functional
[4] = tested on: Staphylococcus aureus; assay: Antimicrobial activity against Staphylococcus aureus MTCC 96 after 24 hrs by well diffusion method; format: functional; conditions: MTCC 96, 24 h
[5] = tested on: Bacillus subtilis; assay: Antimicrobial activity against Bacillus subtilis MTCC 121 after 24 hrs by well diffusion method; format: functional; conditions: MTCC 121, 24 h
[6] = tested on: Staphylococcus aureus; assay: Antimicrobial activity against Staphylococcus aureus MLS16 MTCC 2940 after 24 hrs by well diffusion method; format: functional; conditions: MLS16 MTCC 2940, 24 h
[7] = tested on: Micrococcus luteus; assay: Antimicrobial activity against Micrococcus luteus MTCC 2470 after 24 hrs by well diffusion method; format: functional; conditions: MTCC 2470, 24 h
[8] = tested on: Raoultella planticola; assay: Antimicrobial activity against Klebsiella planticola MTCC 530 after 24 hrs by well diffusion method; format: functional; conditions: MTCC 530, 24 h
[9] = tested on: Escherichia coli; assay: Antimicrobial activity against Escherichia coli MTCC 739 after 24 hrs by well diffusion method; format: functional; conditions: MTCC 739, 24 h
[10] = tested on: Pseudomonas aeruginosa; assay: Antimicrobial activity against Pseudomonas aeruginosa MTCC 2453 after 24 hrs by well diffusion method; format: functional; conditions: MTCC 2453, 24 h
[11] = tested on: Candida albicans; assay: Antimicrobial activity against Candida albicans MTCC 3017 after 24 hrs by well diffusion method; format: functional; conditions: MTCC 3017, 24 h
[12] = tested on: Bacillus subtilis; assay: Bactericidal activity against Bacillus subtilis MTCC 121 after 24 hrs by serial dilution method; format: functional; conditions: MTCC 121, 24 h
[13] = tested on: Staphylococcus aureus; assay: Bactericidal activity against Staphylococcus aureus MTCC 96 after 24 hrs by serial dilution method; format: functional; conditions: MTCC 96, 24 h
[14] = tested on: Staphylococcus aureus; assay: Bactericidal activity against Staphylococcus aureus MLS16 MTCC 2940 after 24 hrs by serial dilution method; format: functional; conditions: MLS16 MTCC 2940, 24 h
[15] = tested on: Micrococcus luteus; assay: Bactericidal activity against Micrococcus luteus MTCC 2470 after 24 hrs by serial dilution method; format: functional; conditions: MTCC 2470, 24 h
[16] = tested on: Raoultella planticola; assay: Bactericidal activity against Klebsiella planticola MTCC 530 after 24 hrs by serial dilution method; format: functional; conditions: MTCC 530, 24 h
[17] = tested on: A549; assay: Cytotoxicity against human A549 cells; format: functional, cell-based
[18] = Cytotoxicity against human PC3 cells; format: functional, cell-based; conditions: PC-3
[19] = tested on: A549; assay: Selectivity ratio of IC50 for human PC3 cells to IC50 for human A549 cells; format: functional
[20] = tested on: Bacillus subtilis; assay: Antibiofilm activity against Bacillus subtilis MTCC 121 after 24 hrs by crystal violet staining based assay; format: functional, organism-based; conditions: MTCC 121, 24 h
[21] = tested on: Staphylococcus aureus; assay: Antibiofilm activity against Staphylococcus aureus MTCC 96 after 24 hrs by crystal violet staining based assay; format: functional, organism-based; conditions: MTCC 96, 24 h
[22] = tested on: Staphylococcus aureus; assay: Antibiofilm activity against Staphylococcus aureus MLS16 MTCC 2940 after 24 hrs by crystal violet staining based assay; format: functional, organism-based; conditions: MLS16 MTCC 2940, 24 h
[23] = tested on: Micrococcus luteus; assay: Antibiofilm activity against Micrococcus luteus MTCC 2470 after 24 hrs by crystal violet staining based assay; format: functional, organism-based; conditions: MTCC 2470, 24 h
[24] = tested on: Raoultella planticola; assay: Antibiofilm activity against Klebsiella planticola MTCC 530 after 24 hrs by crystal violet staining based assay; format: functional, organism-based; conditions: MTCC 530, 24 h

Compound	IC50 [1] [nM]	IC50 [2] [nM]	MIC [4] [µg/mL]	MIC [5] [µg/mL]	MIC [6] [µg/mL]	MIC [7] [µg/mL]	MIC [8] [µg/mL]	MIC [9] [µg/mL]	MIC [10] [µg/mL]	MIC [11] [µg/mL]	MBC [12] [µg/mL]	MBC [13] [µg/mL]	MBC [14] [µg/mL]	MBC [15] [µg/mL]	MBC [16] [µg/mL]	IC50 [17] [nM]	IC50 [18] [nM]	IC50 [20] [nM]	IC50 [21] [nM]	IC50 [22] [nM]	other results
CN(Cc1ccc(F)cc1)C(=O)c1ccc(-c2cc(C3=C(N4CC4)C(=O)C=C(N4CC4)C3=O)no2)s1	15300	500	62.5 (≈ 124 µM)	15.6 (≈ 30.9 µM)	31.2 (≈ 61.8 µM)	31.2 (≈ 61.8 µM)	> 125	> 125	> 125	> 125	62.5 (≈ 124 µM)	> 125	> 125	> 125	> 125	–	–	–	–	–	Ratio IC50 [3]: 30
COc1ccc(C[C@H](N)C(=O)N[C@H]2[C@@H](O)[C@H](n3cnc4c(N(C)C)ncnc43)O[C@@H]2CO)cc1 [PUROMYCIN]	–	–	–	–	–	–	–	–	–	–	–	–	–	–	–	600	700	–	–	–	–
O=C1C=C(N2CC2)C(=O)C(c2cc(-c3ccc(C(=O)N4CCCCC4)s3)on2)=C1N1CC1	1700	21300	15.6 (≈ 34.6 µM)	3.9 (≈ 8.66 µM)	15.6 (≈ 34.6 µM)	62.5 (≈ 139 µM)	7.8 (≈ 17.3 µM)	> 125	> 125	15.6 (≈ 34.6 µM)	15.6 (≈ 34.6 µM)	31.2 (≈ 69.3 µM)	62.5 (≈ 139 µM)	125 (≈ 277 µM)	15.6 (≈ 34.6 µM)	–	–	2800	11200	9800	Ratio IC50 [19]: 12; IC50 [23]: 35600 nM; IC50 [24]: 5400 nM
CO[C@@]12[C@H](COC(N)=O)C3=C(C(=O)C(C)=C(N)C3=O)N1C[C@@H]1N[C@@H]12 [MITOMYCIN]	–	–	1.9 (≈ 5.68 µM)	0.45 (≈ 1.35 µM)	1.9 (≈ 5.68 µM)	0.9 (≈ 2.69 µM)	1.9 (≈ 5.68 µM)	3.9 (≈ 11.7 µM)	1.9 (≈ 5.68 µM)	> 500	0.9 (≈ 2.69 µM)	3.9 (≈ 11.7 µM)	1.9 (≈ 5.68 µM)	1.9 (≈ 5.68 µM)	3.9 (≈ 11.7 µM)	500	500	300	1100	900	IC50 [23]: 900 nM; IC50 [24]: 1100 nM
